Publication PMC10691770, “Inhibition of Parkinson’s disease–related LRRK2 by type I and type II kinase inhibitors: Activity and structures” (Science Advances, 2023)

How the values were obtained:
[1] = test system: LRRK2(WT) and LRRK2(G2019S); design: method as in PMID 34515301; conditions: cited from earlier work
[2] = LRRK2-IN-1 ref 18; HG-10-102-01 ref 19; cited from earlier work
LRRK2^RCKW = biological target: T1, LRRK2^RCKW (Homo sapiens, UniProt Q5S007); experiment: MS-based kinase activity assay (Rab8A phosphorylation); type: biochemical; conditions: 50 nM LRRK2^RCKW, 5 μM Rab8A, 1 mM ATP, ESI-MS readout
T1 construct: His6-Z (TEV site) (N, cleaved yes); made in house; host or cells: Sf9 insect cells (baculovirus)
T1 sequence (Q5S007 1327-2527): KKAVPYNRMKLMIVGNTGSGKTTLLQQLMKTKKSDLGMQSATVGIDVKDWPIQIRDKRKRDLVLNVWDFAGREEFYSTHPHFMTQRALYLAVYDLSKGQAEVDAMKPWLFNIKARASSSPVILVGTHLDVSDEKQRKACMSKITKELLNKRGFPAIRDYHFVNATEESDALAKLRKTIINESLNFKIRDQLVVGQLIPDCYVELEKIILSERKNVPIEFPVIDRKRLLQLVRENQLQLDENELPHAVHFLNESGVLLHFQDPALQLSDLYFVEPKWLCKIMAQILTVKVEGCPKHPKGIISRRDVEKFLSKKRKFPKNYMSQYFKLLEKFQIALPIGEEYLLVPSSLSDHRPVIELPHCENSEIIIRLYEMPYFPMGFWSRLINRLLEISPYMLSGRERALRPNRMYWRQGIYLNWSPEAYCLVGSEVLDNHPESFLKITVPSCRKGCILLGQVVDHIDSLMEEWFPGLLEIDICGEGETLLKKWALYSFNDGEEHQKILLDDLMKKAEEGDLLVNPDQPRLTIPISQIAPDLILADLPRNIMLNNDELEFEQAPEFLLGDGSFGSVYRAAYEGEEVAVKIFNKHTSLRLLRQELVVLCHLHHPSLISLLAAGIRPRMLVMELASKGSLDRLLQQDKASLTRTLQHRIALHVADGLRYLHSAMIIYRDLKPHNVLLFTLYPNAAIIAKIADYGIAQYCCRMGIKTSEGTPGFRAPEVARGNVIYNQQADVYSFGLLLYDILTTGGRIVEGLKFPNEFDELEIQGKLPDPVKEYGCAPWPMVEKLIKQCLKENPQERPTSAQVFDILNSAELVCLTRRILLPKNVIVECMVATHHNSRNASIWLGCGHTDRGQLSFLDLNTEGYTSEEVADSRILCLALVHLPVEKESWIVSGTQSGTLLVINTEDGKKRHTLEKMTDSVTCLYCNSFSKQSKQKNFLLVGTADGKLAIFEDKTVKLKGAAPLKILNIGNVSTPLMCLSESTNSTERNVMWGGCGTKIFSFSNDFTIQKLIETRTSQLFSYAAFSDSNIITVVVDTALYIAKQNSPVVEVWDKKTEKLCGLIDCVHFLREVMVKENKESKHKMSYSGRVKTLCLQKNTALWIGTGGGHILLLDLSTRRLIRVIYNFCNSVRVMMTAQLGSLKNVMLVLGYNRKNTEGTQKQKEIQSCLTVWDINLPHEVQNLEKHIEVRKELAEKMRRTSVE
Description: To compare the activity of the selected LRRK2 inhibitors, we developed a mass spectrometry (MS)–based kinase activity assay using an established endogenous substrate. We subjected the Rab8A GTPase domain (residues 6 to 176) to LRRK2^RCKW phosphorylation in the presence of varying concentrations of a given inhibitor and directly quantified the amount of phosphorylated Rab8A (pRab8A) by ESI-MS (fig. S1C).
To determine the IC50 values for a set of LRRK2 inhibitors, the phosphorylation of the LRRK2 substrate Rab8A was assessed by applying an MS-based activity assay. LRRK2^RCKW protein (50 nM) was mixed with 5 μM substrate and varying concentrations of the inhibitors in assay buffer [20 mM Hepes (pH 7.4), 150 mM NaCl, 0.5 mM TCEP, 20 μM GDP, 2.5 mM MgCl2, and 0.5% glycerol]. The reaction was started by adding 1 mM ATP and incubated at room temperature (RT). […] Data were acquired using the MassHunter LC/MS Data Acquisition software and analyzed using the BioConfirm vB.08.00 tool (both Agilent Technology) (https://www.agilent.com/en/product/software-informatics/mass-spectrometry-software, RRID: SCR_016657). The peak intensities of the unphosphorylated and phosphorylated Rab8A species were quantified and the relative kinase activity was calculated. […]

LRRK2^KW (G2019S) = experiment: Differential scanning fluorimetry (DSF) thermal shift assay, G2019S mutant; type: binding; conditions: inhibitor 10 μM
Protocol: The assay was performed according to a previously established protocol ([37]). Briefly, a solution of 4 μM LRRK2^KW protein in assay buffer [20 mM Hepes (pH 7.4), 150 mM NaCl, 0.5 mM Tris (2-carboxyethyl) phosphine (TCEP), 20 μM GDP, 2.5 mM MgCl2, and 0.5% glycerol] was mixed 1:1000 with SYPRO Orange (Sigma-Aldrich). The inhibitors to be tested were added to a final concentration of 10 μM. Twenty microliters of each sample were placed in a 96-well plate and heated gradually from 25° to 95°C. Fluorescence was monitored using an MX3005P real-time PCR instrument (Stratagene) with excitation and emission filters set to 465 and 590 nm, respectively. Data were analyzed with the MxPro software.

## Cc1ccc(C(=O)Nc2ccc(CN3CCN(C)CC3)c(C(F)(F)F)c2)cc1C#Cc1cnc2[nH]ncc2c1 [GZD-824]
[1]; in vitro phosphorylation assay
  IC50 for LRRK2(WT) lower than that for LRRK2(G2019S): ~ 4 fold

## CNc1nc(Nc2ccc(C(=O)N3CCOCC3)cc2OC)ncc1Cl [HG-10-102-01]
[2]
  brain penetrance: brain penetrant

## COc1cc(C(=O)N2CCC(N3CCN(C)CC3)CC2)ccc1Nc1ncc2c(n1)N(C)c1ccccc1C(=O)N2C [LRRK2-IN-1]
LRRK2^RCKW
  IC50 (inhibition of Rab8A phosphorylation), in words: high nanomolar range
[2]
  brain penetrance: low brain penetrance

## CC1CN(c2cc(-c3n[nH]c4ccc(OC5(C)CC5)cc34)ncn2)CC(C)O1 (stereo not drawn) [MLi-2]
LRRK2^KW (G2019S)
  ΔTM: 18 K
[1]; purified full-length LRRK2, in vitro assay with a peptide kinase substrate
  inhibition of LRRK2(G2019S) better than LRRK2(WT): ~ 2 fold
